The text below walks through data of patent publication EP0183174A2, “Substituted phenoxy urea, processes for its preparation and herbicide containing it as active ingredient” (KUMIAI CHEMICAL INDUSTRY CO., LTD., priority 1984, dated 1986).

What all share (assay): Test Example 3: herbicidal test by upland soil treatment (phytotoxicity)
Type in all cases: in vivo
Common to all, as to conditions: evaluated twenty days after application

In one data set the test system is maize. Also noted: key: 5: Withered; 4.5: Herbicidal effect (or phytotoxicity) in a range of 90 to 99%; 4: Herbicidal effect (or phytotoxicity) in a range of 80 to 89%; 3.5: Herbicidal effect (or phytotoxicity) in a range of 70 to 79%; 3: Herbicidal effect (or phytotoxicity) in a range of 60 to 69%; 2.5: Herbicidal effect (or phytotoxicity) in a range of 50 to 59%; 2: Herbicidal effect (or phytotoxicity) in a range of 40 to 49%; 1.5: Herbicidal effect (or phytotoxicity) in a range of 30 to 39%; 1: Herbicidal effect (or phytotoxicity) in a range of 20 to 29%; 0.5: Herbicidal effect (or phytotoxicity) in a range of 1 to 19%; 0: No herbicidal effect (or no phytotoxicity). The text has this:
(§1) Into each plastic pot of 600 cm^2, upland soil was filled, then seeds of barnyardgrass, crabgrass, green foxtail, redroot pigweed, rice flatsedge, rice, wheat, maize, soybean, cotton and sugar beet were sown, and they were covered with soil. A predetermined amount of the wettable powder prepared from the test compound in accordance with Formulation Example 3 and diluted with water, was uniformly applied to the surface of the soil at an application rate of 1000 liter/hectare by means of a small size spray. They were grown in a greenhouse, and twenty days after the application, the herbicidal effects and phytotoxicity were evaluated in accordance with the standards as identified in Table 5.

A further data set has as its system soybean. Also noted: key: 5: Withered; 4.5: Herbicidal effect (or phytotoxicity) in a range of 90 to 99%; 4: Herbicidal effect (or phytotoxicity) in a range of 80 to 89%; 3.5: Herbicidal effect (or phytotoxicity) in a range of 70 to 79%; 3: Herbicidal effect (or phytotoxicity) in a range of 60 to 69%; 2.5: Herbicidal effect (or phytotoxicity) in a range of 50 to 59%; 2: Herbicidal effect (or phytotoxicity) in a range of 40 to 49%; 1.5: Herbicidal effect (or phytotoxicity) in a range of 30 to 39%; 1: Herbicidal effect (or phytotoxicity) in a range of 20 to 29%; 0.5: Herbicidal effect (or phytotoxicity) in a range of 1 to 19%; 0: No herbicidal effect (or no phytotoxicity).
Excerpt: as §1

In a further data set the test system is sugar beet.
Excerpt: as §1

Take `CN(C)C(=O)NOc1cc(Cl)ccc1Cl` [Compound No. 1, 3-(2,5-Dichlorophenoxy)-1,1-dimethyl urea]: the “Phytotoxicity Maize” value with maize (Dose 1 kg/HA) and in the data set with maize (Dose 4 kg/HA) was 0 each time. Moreover, the “Phytotoxicity Soybean” value in the data set with soybean (Dose 1 kg/HA) and in the data set on soybean (Dose 4 kg/HA) was 0 each time. For the same molecule, the “Phytotoxicity Sugar beet” value in the data set with sugar beet (Dose 1 kg/HA) is on record as 2 (Herbicidal effect (or phytotoxicity) in a range of 40 to 49%); in the data set on sugar beet (Dose 4 kg/HA), 3 (Herbicidal effect (or phytotoxicity) in a range of 60 to 69%).
